# Data taken from patent publication US20050202513A1.
# “Also recorded” adds a separate entry of the source. Where a name gives a salt, the structure may show the parent alone.
# Assays:
# cancer patient [1] = experiment: Echocardiogram analysis, ejection fraction of the heart; type: in vivo, human; conditions: cancer patient administered with adriamycin, healthy volunteer not less than 60%
# Experimental: By the echocardiogram analysis, the heart pump function was evaluated based on the ejection fraction (EF) of the heart as calculated by the following formula: Ejection fraction (%)={(left ventricular relaxation terminal diameter^2−left ventricular contraction terminal diameter^2)/left ventricular relaxation terminal diameter^2)×100
# The ejection fraction of healthy volunteers is known to be not less than 60%.
# cancer patient [2] = experiment: Electrocardiogram analysis; type: in vivo, human; conditions: adriamycin patient
# cancer patient [3] = experiment: Blood Troponin T level, sandwich ELISA; conditions: cut-off 0.1 ng/mL
# cancer patient [4] = experiment: Measurement of creatine kinase in blood
# cancer patient [5] = experiment: Blood Myosin Light Chain I level, sandwich RIA; conditions: cut-off 2.5 ng/mL
# cancer patient [6] = experiment: Blood serum human H-FABP level, sandwich ELISA (MARKIT M H-FABP kit); conditions: cut-off 6.2 ng/mL
# cancer patient [7] = experiment: Clinical diagnosis of cardiac function; type: in vivo, human; conditions: cancer patient administered with daunorubicin hydrochloride; expression of generalized edema
# Experimental: The second blood sampling in the Table was performed one month after the first blood sampling.
# [8] = adriamycin patient, first blood sampling
# [9] = adriamycin patient, second blood sampling
# [10] = adriamycin patient, third blood sampling
# [11] = daunorubicin hydrochloride patient, first blood sampling
# [12] = daunorubicin hydrochloride patient, second blood sampling (one month after the first)
compound,measurement,setting,value
"COc1cccc2c1C(=O)c1c(O)c3c(c(O)c1C2=O)C[C@@](O)(C(=O)CO)C[C@@H]3O[C@H]1C[C@H](N)[C@H](O)[C@H](C)O1 [adriamycin, Doxorubicin hydrochloride]",EF (ejection fraction),cancer patient [1]; first blood sampling,53%
same,EF (ejection fraction),cancer patient [1]; third blood sampling (20 days after the second),37%
same,Electrocardiogram finding,"cancer patient [2]; about 1 week before the third blood sampling, hydrochloride",T wave decreased; also recorded: sinus tachycardia and supraventricular extrasystole
same,Electrocardiogram finding,cancer patient [2]; about 2 weeks before the first blood sampling,extension of QTc
same,Blood concentration Troponin T,cancer patient [3]; [8],<0.01 ng/mL
same,Blood concentration Troponin T,cancer patient [3]; [9],0.01 ng/mL
same,Blood concentration Troponin T,cancer patient [3]; [10],0.41 ng/mL
same,Blood concentration Creatine kinase,"cancer patient [4]; adriamycin patient, first blood sampling, healthy 25-180 U/L (male), 20-150 U/L (female)",37 U/L
same,Blood concentration Creatine kinase,"cancer patient [4]; adriamycin patient, second blood sampling (about 2.5 months after the first)",36 U/L
same,Blood concentration Creatine kinase,"cancer patient [4]; adriamycin patient, third blood sampling (20 days after the second)",33 U/L
same,Blood concentration Myosin Light Chain I,cancer patient [5]; [8],<1.0 ng/mL
same,Blood concentration Myosin Light Chain I,cancer patient [5]; [9],<1.0 ng/mL
same,Blood concentration Myosin Light Chain I,cancer patient [5]; [10],<1.0 ng/mL
same,Blood concentration Human H-FABP,"cancer patient [6]; adriamycin patient, blood serum, first blood sampling",6.8 ng/mL
same,Blood concentration Human H-FABP,"cancer patient [6]; adriamycin patient, blood serum, second blood sampling (about 2.5 months after the first)",9.0 ng/mL
same,Blood concentration Human H-FABP,"cancer patient [6]; adriamycin patient, blood serum, third blood sampling (20 days after the second)",19.6 ng/mL
COc1cccc2c1C(=O)c1c(O)c3c(c(O)c1C2=O)C[C@@](O)(C(C)=O)C[C@@H]3O[C@H]1C[C@H](N)[C@H](O)[C@H](C)O1 [daunorubicin hydrochloride],Diagnosis,cancer patient [7],cardiac failure
same,Blood concentration Troponin T,cancer patient [3]; [11],<0.01 ng/mL
same,Blood concentration Troponin T,cancer patient [3]; [12],<0.01 ng/mL
same,Blood concentration Creatine kinase,"cancer patient [4]; daunorubicin hydrochloride patient with cardiac failure, first blood sampling",11 U/L
same,Blood concentration Creatine kinase,"cancer patient [4]; daunorubicin hydrochloride patient with cardiac failure, second blood sampling (one month after the first)",7 U/L
same,Blood concentration Myosin Light Chain I,cancer patient [5]; [11],<1.0 ng/mL
same,Blood concentration Myosin Light Chain I,cancer patient [5]; [12],1.4 ng/mL
same,Blood concentration Human H-FABP,cancer patient [6]; [11],7.6 ng/mL
same,Blood concentration Human H-FABP,cancer patient [6]; [12],6.9 ng/mL
